Where two headings read alike, the source gives them in different places.
Assays:
[1] = cited from earlier work; for time for degradation in water of at least 50%: pH 9
[2] = Example 7: picarbutrazox and thiamethoxam stability relative to pH, 54° C. for 2 weeks; format: physicochemical; details: for Change in thiamethoxam concentration after storage at 54° C. for 2 weeks: Example 7 formulation (20.8% w/w thiamethoxam); for Change in picarbutrazox concentration after storage at 54° C. for 2 weeks: Example 7 formulation (0.42% w/w picarbutrazox)
Description: Two standard formulations containing the follow active ingredients were created. The standard formulations contained customary formulation components and were then pH adjusted via the addition of either Sodium Hydroxide (NaOH) or Phosphoric Acid (H3PO4) to obtain a range of pH's.

[3] = Example 8: picarbutrazox and thiamethoxam stability relative to pH, 1 month at 50° C.; format: physicochemical; details: for Change in thiamethoxam concentration after storage for 1 month at 50° C.: Example 8 formulation (20.8% w/w thiamethoxam); for Change in picarbutrazox concentration after storage for 1 month at 50° C.: Example 8 formulation (0.42% w/w picarbutrazox)
Description: Four standard formulations containing the follow active ingredients were created. The standard formulations contained customary formulation components and were then pH adjusted via the addition of either Sodium Hydroxide (NaOH) or Phosphoric Acid (H3PO4) to obtain a range of pH's.

[4] = Example 2: storage stability of standard formulation (pH 6.05), one year at 20-25° C.; format: physicochemical; details: Example 2 formulation; for Concentration at t = 0: pH 6.05, before storage; for % loss: pH 6.05, one year at 20-25° C.; for Concentration at t = 1 year and 20-25 ° C.: pH 6.05, stored one year at 20-25° C.
Procedure: Another standard formulation containing the follow active ingredients was created as follows:
The formulation was stored for one year at 20-25° C. The pH of 6.05 providing excellent chemical stability for picarbutrazox as well at the other active ingredients.

[5] = pH 7; cited from earlier work
[6] = Example 9: storage stability of 43.3% w/w picarbutrazox formulation; format: physicochemical; details: Example 9 formulation, picarbutrazox only AI at 43.3% w/w, Initial pH 7.2
Procedure: A standard formulation was prepared which contained picarbutrazox as the only Al at 43.3% w/w concentration. The initial pH was pH 7.2.

[7] = Example 10: storage stability of mixtures of 36% w/w and 0.8% w/w PCBX formulations, 2 weeks at 54 C.; format: physicochemical; details: for Actual Measured % w/w PCBX in the combined mixture: before storage
Procedure: A standard formulation was prepared which contained picarbutrazox at 36% w/w concentration. This was then mixed in differing ratios with a standard formulation which contained picarbutrazox at 0.8% w/w concentration. The mixtures were stored for 2 weeks at 54 C.

[8] = 0% of 36% w/w PCBX formulation + 100% of 0.8% w/w PCBX formulation
[9] = mixture 30% of 36% w/w PCBX formulation + 70% of 0.8% w/w PCBX formulation
[10] = mixture 60% of 36% w/w PCBX formulation + 40% of 0.8% w/w PCBX formulation
[11] = mixture 90% of 36% w/w PCBX formulation + 10% of 0.8% w/w PCBX formulation

In the case of `CN1COCN(Cc2cnc(Cl)s2)/C1=N\[N+](=O)[O-]` [Thiamethoxam], the Hydrolysis ([1]; pH 1, 5, 7 (25° C.)) is given as “stable”, the “Hydrolysis DT50” value ([1]; pH 9, 25° C.) is given as 7.3 to 15.6 days and the “Change in thiamethoxam concentration after storage at 54° C. for 2 weeks” value ([2]; Initial pH 7.2) is given as −1%. For the same compound, the “Change in thiamethoxam concentration after storage at 54° C. for 2 weeks” value ([2]; Initial pH 8.0) was −3%, the “Change in thiamethoxam concentration after storage for 1 month at 50° C.” value (“Change in thiamethoxam concentration … at 50° C.” for short) ([3]; Initial pH 5.7) was −1% and the “Change in thiamethoxam concentration … at 50° C.” value ([3]; Initial pH 6.0) was −1%. For the same compound, the “Change in thiamethoxam concentration … at 50° C.” value ([3]; Initial pH 7.2) was −5%, the “Change in thiamethoxam concentration … at 50° C.” value ([3]; Initial pH 8.0) was −7% and the “Concentration at t = 0” value [4] was 19.5 % w/w. The “% loss” value [4] was 2% and the “Concentration at t = 1 year and 20-25 ° C.” value [4] was 19.1 % w/w.

For `CNC(=O)c1cc(Cl)cc(C)c1NC(=O)c1cc(Br)nn1-c1ncccc1Cl` [chlorantraniliprole], the Hydrolysis ([1]; pH 4-7 (25° C.)) is given as “stable”, the “Hydrolysis DT50” value ([1]; pH 9, 25° C.) is given as 10 days and the “time for degradation in water of at least 50%” value [1] is given as “less than 30 days”. For the same compound, the “Aqueous photolysis DT50” value [5] was “(25° C.). Aqueous photolysis DT50 0.37 d (pH 7)”.

For `CNC(=O)c1cc(C#N)cc(C)c1NC(=O)c1cc(Br)nn1-c1ncccc1Cl` [cyantraniliprole], the “Hydrolysis DT50” value ([1]; pH 4, 20° C.) is given as 261 days, the “Hydrolysis DT50” value ([1]; pH 7, 20° C.) is given as 61 days and the “Hydrolysis DT50” value ([1]; pH 9, 20° C.) is given as 1.8 days. For the same compound, the “time for degradation in water of at least 50%” value [1] was “less than 30 days”.

For `N#Cc1c[nH]cc1-c1cccc2c1OC(F)(F)O2` [Fludioxonil], the “Concentration at t = 0” value [4] was 0.955 % w/w, the “% loss” value [4] was 1% and the “Concentration at t = 1 year and 20-25 ° C.” value [4] was 0.944 % w/w.

For `Cn1cc(C(=O)Nc2ccccc2C2CC2C2CC2)c(C(F)F)n1` (centres unmarked) [Sedaxane], the “Concentration at t = 0” value [4] was 0.974 % w/w, the “% loss” value [4] was 0% and the “Concentration at t = 1 year and 20-25 ° C.” value [4] was 0.970 % w/w.

In the case of `COCC(=O)N(c1c(C)cccc1C)[C@H](C)C(=O)OC` [Mefenoxam], the “Concentration at t = 0” value [4] is reported as 5.78 % w/w, the “% loss” value [4] is reported as 0% and the “Concentration at t = 1 year and 20-25 ° C.” value [4] is reported as 5.77 % w/w.

In the case of `Cn1nnnc1/C(=N\OCc1cccc(NC(=O)OC(C)(C)C)n1)c1ccccc1` [picarbutrazox, 1,1-Dimethylethyl N-(6-((((Z)-((1-methyl-1H-tetrazol-5-yl)phenylmethylene)amino)oxy)methyl)-2-pyridinyl)carbamate], the “Change in picarbutrazox concentration after storage for 1 month at 50° C.” value [6] is reported as −1%, the “Change in picarbutrazox concentration after storage for 2 weeks at 54° C.” value [6] is reported as −2% and the “Change in PCBX concentration after storage for 2 weeks at 54 C.” value (“Change in PCBX concentration” below) [7, 8] is reported as 11%. For the same compound, the “Actual Measured % w/w PCBX in the combined mixture” value (from here on “Actual Measured % w/w PCBX”) [7, 8] was 0.85% w/w, the “Change in PCBX concentration” value [7, 9] was 0% and the “Actual Measured % w/w PCBX” value [7, 9] was 11.4% w/w. For the same compound, the “Change in PCBX concentration” value [7, 10] was 0%, the “Actual Measured % w/w PCBX” value [7, 10] was 21.8% w/w and the “Change in PCBX concentration” value [7, 11] was 0%. For the same compound, the “Actual Measured % w/w PCBX” value [7, 11] was 32.6% w/w, the “Change in picarbutrazox concentration after storage at 54° C. for 2 weeks” value ([2]; Initial pH 7.2) was −10% and the “Change in picarbutrazox concentration after storage at 54° C. for 2 weeks” value ([2]; Initial pH 8.0) was −6%. For the same compound, the “Change in picarbutrazox concentration after storage for 1 month at 50° C.” value ([3]; Initial pH 5.7) was −16%, the “Change in picarbutrazox concentration after storage for 1 month at 50° C.” value ([3]; Initial pH 6.0) was −16% and the “Change in picarbutrazox concentration after storage for 1 month at 50° C.” value ([3]; Initial pH 7.2) was −13%. The “Change in picarbutrazox concentration after storage for 1 month at 50° C.” value ([3]; Initial pH 8.0) was −5%, the “Concentration at t = 0” value [4] was 0.365 % w/w and the “% loss” value [4] was 0%. For the same compound, the “Concentration at t = 1 year and 20-25 ° C.” value [4] was 0.367 % w/w.

From US12593847B2, “Formulations” (SYNGENTA CROP PROTECTION AG, priority 2020, dated 2026)
